Results from patent publication EP4745135A1 (Gluetacs Therapeutics (Shanghai) Co., Ltd., priority 2023, dated 2025).

Experiments:
CK1α = target: T1, CK1α (Homo sapiens, UniProt P48729+Q96SW2); assay: Western blot, degradation of substrate protein in hPBMCs; assay type: cell-based; settings: Western blot, 24 hours of compound treatment, compounds tested at 50 nM and 500 nM (concentration for the table not stated)
T1 construct: effects of the compounds of the present disclosure on the expression of target proteins in cells; endogenous in cells; host or cells: human PBMCs (Milecell Biotechnologies)
Description: (§1) Conventional Western blot assay was performed to evaluate the effects of the compounds of the present disclosure on the expression of target proteins in cells. • (1) Cell Seeding and Protein Harvesting: Human peripheral blood mononuclear cells (hPBMCs) at a density of 1×10^6 cells/mL were thawed according to the PBMC Recovery Protocol (Milecell Biotechnologies Inc, Shanghai). […] After 24 hours of compounds treatment, cells were harvested and lysed in RIPA protein lysate containing protease inhibitors on ice for 30 min, followed by centrifugation. The supernatant was aspirated as the extracted total cell protein. The protein concentration of the supernatant was determined using the conventional BCA (Bicinchoninic Acid) assay. • (2) To the collected supernatant, 5X SDS sample loading buffer was added, followed by denaturation at 95°C for 5 minutes. The denatured samples were then separated by SDS-PAGE electrophoresis on a polyacrylamide gel, transferred onto a nitrocellulose membrane (0.45 µm NC membrane), blocked with blocking buffer at room temperature for 1 hour, and subjected to antibody incubation and development procedures according to the antibody manufacturer's instructions (Cell Signaling Technology Company).
(§2) Half-Maximal Degradation Concentration value (the drug concentration required for degrading proteins by 50%, abbreviated as DC50) reads method: comparing the grayscale values of Western blot bands from drug-treated samples with those from blank DMSO-treated controls, and identifying the drug concentration range at which the grayscale value is half that of the DMSO-treated control bands.
(§3) DC50 values can be calculated using ImageJ software to measure grayscale values of Western blot bands from drug-treated samples. The concentration-response curve is fitted to estimate the drug concentration corresponding to half the grayscale value.
(§4) Target protein remaining (%) refers to the percentage of target protein remaining in cells after treatment with protein degrader compounds.
(§5) Calculation method for target protein remaining (%): Use ImageJ software to measure grayscale values of Western blot bands from drug (protein degrader)-treated samples. The grayscale value of drug-treated bands is divided by that of internal control protein bands, and the resulting quotient is normalized to obtain the relative percentage of remaining target protein after protein degrader treatment.
(§6) Target protein degradation rate (%) = 1−target protein remaining (%). [formula]

IKZF1 = target: T2, IKZF1 (Homo sapiens, UniProt Q13422+Q96SW2); assay: as above; assay type: cell-based; settings: Western blot, 24 hours of compound treatment, compounds tested at 50 nM and 500 nM (concentration for the table not stated)
T2 construct: effects of the compounds of the present disclosure on the expression of target proteins in cells; endogenous in cells; host or cells: human PBMCs (Milecell Biotechnologies)
Description: as §1, §2, §3, §4, §5, §6

IKZF2 = target: T3, IKZF2 (Homo sapiens, UniProt Q96SW2+Q9UKS7); assay: as above; assay type: cell-based; settings: Western blot, 24 hours of compound treatment, compounds tested at 50 nM and 500 nM (concentration for the table not stated)
T3 construct: effects of the compounds of the present disclosure on the expression of target proteins in cells; endogenous in cells; host or cells: human PBMCs (Milecell Biotechnologies)
Description: as §1, §2, §3, §4, §5, §6

IKZF3 = target: T4, IKZF3 (Homo sapiens, UniProt Q96SW2+Q9UKT9); assay: as above; assay type: cell-based; settings: Western blot, 24 hours of compound treatment, compounds tested at 50 nM and 500 nM (concentration for the table not stated)
T4 construct: effects of the compounds of the present disclosure on the expression of target proteins in cells; endogenous in cells; host or cells: human PBMCs (Milecell Biotechnologies)
Description: as §1, §2, §3, §4, §5, §6

WEE1 = target: T5, WEE1 (Homo sapiens, UniProt P30291+Q96SW2); assay: as above; assay type: cell-based; settings: Western blot, 24 hours of compound treatment, compounds tested at 50 nM and 500 nM (concentration for the table not stated)
T5 construct: effects of the compounds of the present disclosure on the expression of target proteins in cells; endogenous in cells; host or cells: human PBMCs (Milecell Biotechnologies)
Description: as §1, §2, §3, §4, §5, §6

GSPT1 = assay: as above; assay type: cell-based, Human; settings: Western blot, 24 hours of compound treatment, compounds tested at 50 nM and 500 nM (concentration for the table not stated)
[1] = target: T6, human Cereblon WT GST-tagged protein (Homo sapiens, UniProt Q96SW2); assay: CRBN-binding affinity, HTRF (CEREBLON BINDING kit); settings: for inhibition at 0.5 µM: read-out: Inhibition Rate at 0.5 µM (%); for inhibition at 2 µM: read-out: Inhibition Rate at 2 µM (%)
T6 construct: purchased CISBIO 64BDCRBNPEH
T6 sequence (Q96SW2 whole entry): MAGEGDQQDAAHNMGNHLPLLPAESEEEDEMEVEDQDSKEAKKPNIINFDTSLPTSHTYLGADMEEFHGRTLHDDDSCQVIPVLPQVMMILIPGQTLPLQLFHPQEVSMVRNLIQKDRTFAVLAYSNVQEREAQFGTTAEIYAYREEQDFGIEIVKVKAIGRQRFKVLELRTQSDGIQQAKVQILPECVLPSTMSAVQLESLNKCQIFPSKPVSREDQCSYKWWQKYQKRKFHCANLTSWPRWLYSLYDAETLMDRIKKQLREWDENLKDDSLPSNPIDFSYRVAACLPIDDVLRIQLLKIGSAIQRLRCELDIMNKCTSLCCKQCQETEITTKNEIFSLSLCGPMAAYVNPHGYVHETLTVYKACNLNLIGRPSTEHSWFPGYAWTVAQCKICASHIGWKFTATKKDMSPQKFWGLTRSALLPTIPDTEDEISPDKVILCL

T5 sequence (P30291 whole entry): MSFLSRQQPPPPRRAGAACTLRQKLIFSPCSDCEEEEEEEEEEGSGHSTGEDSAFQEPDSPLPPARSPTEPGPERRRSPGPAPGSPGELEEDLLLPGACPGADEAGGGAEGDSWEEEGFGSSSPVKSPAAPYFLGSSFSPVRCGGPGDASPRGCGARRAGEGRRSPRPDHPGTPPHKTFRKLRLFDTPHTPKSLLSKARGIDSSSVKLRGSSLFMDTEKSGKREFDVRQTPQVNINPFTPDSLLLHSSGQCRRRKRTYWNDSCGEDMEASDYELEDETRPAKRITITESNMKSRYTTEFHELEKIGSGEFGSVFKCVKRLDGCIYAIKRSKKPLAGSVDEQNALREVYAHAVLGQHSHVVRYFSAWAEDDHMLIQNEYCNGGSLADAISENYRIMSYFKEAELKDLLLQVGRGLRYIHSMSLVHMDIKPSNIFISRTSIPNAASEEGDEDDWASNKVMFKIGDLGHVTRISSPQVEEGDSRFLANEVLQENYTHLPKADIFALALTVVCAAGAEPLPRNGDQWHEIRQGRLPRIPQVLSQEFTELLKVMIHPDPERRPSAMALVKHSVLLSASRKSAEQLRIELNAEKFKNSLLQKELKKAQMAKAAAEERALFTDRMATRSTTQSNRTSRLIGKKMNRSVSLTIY
T5 sequence (Q96SW2 whole entry): as the sequence (Q96SW2 whole entry) above
T5 sequence (Q16531 whole entry partner): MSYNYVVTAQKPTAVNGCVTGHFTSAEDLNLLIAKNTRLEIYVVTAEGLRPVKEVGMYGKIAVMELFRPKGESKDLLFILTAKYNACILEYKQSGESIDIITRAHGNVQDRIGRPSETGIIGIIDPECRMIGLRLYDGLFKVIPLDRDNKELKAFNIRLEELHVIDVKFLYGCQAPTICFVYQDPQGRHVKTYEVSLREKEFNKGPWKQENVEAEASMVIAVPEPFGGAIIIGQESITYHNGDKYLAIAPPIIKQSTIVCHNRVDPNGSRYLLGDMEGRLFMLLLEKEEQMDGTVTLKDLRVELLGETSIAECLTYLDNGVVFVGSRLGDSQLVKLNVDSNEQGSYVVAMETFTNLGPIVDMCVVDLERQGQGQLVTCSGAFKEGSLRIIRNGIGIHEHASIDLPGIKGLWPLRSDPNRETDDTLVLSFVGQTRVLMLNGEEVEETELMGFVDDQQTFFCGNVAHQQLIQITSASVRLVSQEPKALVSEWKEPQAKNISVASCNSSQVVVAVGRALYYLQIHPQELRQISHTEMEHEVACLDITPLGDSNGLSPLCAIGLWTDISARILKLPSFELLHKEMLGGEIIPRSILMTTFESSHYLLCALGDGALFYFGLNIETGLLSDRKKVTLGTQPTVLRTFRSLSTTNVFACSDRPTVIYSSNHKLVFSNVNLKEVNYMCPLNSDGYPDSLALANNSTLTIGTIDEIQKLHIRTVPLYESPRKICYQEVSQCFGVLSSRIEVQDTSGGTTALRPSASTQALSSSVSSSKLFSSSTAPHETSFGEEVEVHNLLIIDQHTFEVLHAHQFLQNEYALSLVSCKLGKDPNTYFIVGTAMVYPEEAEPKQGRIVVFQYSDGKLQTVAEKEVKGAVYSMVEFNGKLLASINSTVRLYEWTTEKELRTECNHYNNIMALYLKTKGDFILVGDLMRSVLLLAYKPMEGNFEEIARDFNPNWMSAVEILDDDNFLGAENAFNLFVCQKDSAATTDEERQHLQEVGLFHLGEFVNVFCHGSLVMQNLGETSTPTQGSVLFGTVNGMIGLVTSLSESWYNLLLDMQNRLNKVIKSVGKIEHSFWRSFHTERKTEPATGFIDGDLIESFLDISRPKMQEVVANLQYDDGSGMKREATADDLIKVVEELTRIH
T1 sequence (P48729 whole entry): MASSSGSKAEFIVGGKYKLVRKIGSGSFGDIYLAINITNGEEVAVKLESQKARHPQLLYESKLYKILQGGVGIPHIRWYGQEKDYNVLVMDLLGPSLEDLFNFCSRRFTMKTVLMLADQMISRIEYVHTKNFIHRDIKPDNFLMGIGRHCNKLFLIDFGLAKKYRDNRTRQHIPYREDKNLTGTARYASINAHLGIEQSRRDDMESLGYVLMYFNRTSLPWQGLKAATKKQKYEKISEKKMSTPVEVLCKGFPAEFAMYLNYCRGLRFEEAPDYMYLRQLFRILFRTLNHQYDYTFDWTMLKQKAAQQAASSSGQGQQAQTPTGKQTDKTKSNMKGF
T1 sequence (Q96SW2 whole entry): as the sequence (Q96SW2 whole entry) above
T1 sequence (Q16531 whole entry partner): as the sequence (Q16531 whole entry partner) above
T2 sequence (Q13422 whole entry): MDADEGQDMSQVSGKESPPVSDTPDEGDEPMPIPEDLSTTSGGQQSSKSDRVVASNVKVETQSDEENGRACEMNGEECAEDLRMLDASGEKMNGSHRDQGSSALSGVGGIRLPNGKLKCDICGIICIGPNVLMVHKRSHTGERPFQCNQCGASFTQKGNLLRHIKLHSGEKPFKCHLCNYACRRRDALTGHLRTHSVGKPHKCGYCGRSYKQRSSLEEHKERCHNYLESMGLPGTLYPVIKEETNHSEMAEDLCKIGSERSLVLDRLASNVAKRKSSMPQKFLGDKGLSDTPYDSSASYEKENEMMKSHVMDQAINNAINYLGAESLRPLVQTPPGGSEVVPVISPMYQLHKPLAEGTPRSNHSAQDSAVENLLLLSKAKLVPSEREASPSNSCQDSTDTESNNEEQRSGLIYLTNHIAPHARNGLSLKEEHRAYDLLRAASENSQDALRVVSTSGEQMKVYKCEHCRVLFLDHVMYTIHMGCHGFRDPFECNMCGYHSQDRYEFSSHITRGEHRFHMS
T2 sequence (Q96SW2 whole entry): as the sequence (Q96SW2 whole entry) above
T2 sequence (Q16531 whole entry partner): as the sequence (Q16531 whole entry partner) above
T4 sequence (Q9UKT9 whole entry): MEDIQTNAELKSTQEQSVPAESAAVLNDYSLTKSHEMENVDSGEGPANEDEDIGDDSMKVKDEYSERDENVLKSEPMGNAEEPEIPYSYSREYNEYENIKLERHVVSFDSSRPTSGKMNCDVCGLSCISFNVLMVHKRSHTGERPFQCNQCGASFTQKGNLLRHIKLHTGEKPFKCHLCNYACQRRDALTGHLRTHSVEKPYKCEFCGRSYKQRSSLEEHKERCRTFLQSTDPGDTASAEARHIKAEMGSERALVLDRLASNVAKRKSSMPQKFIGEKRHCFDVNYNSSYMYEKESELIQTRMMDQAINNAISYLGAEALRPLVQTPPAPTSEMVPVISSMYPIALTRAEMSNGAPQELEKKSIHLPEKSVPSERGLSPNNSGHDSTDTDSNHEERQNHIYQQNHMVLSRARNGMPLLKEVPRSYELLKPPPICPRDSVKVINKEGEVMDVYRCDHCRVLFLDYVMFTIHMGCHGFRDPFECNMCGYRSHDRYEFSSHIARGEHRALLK
T4 sequence (Q96SW2 whole entry): as the sequence (Q96SW2 whole entry) above
T4 sequence (Q16531 whole entry partner): as the sequence (Q16531 whole entry partner) above
T3 sequence (Q9UKS7 whole entry): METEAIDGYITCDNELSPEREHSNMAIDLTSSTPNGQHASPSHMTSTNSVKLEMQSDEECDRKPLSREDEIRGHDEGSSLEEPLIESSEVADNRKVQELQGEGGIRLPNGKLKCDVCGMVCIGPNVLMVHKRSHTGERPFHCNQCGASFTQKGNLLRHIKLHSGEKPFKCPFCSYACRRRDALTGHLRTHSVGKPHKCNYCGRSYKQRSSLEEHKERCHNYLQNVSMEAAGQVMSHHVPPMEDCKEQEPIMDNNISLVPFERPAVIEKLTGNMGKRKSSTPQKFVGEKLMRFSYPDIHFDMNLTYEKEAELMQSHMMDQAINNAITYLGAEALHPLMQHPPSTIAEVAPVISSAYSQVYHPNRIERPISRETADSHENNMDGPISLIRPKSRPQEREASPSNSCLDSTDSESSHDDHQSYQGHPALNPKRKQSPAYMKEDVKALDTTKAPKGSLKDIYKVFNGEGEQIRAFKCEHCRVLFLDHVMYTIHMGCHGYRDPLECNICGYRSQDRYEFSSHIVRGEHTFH
T3 sequence (Q96SW2 whole entry): as the sequence (Q96SW2 whole entry) above
T3 sequence (Q16531 whole entry partner): as the sequence (Q16531 whole entry partner) above

| inhibition at 0.5 µM [1] [%] | inhibition at 2 µM [1] [%] | Compound | CK1α substrate protein remaining % (CK1α) | IKZF 1 substrate protein remaining % (IKZF1) | IKZF2 substrate protein remaining % (IKZF2) | IKZF3 substrate protein remaining % (IKZF3) | Wee1 substrate protein remaining % (WEE1) | GSPT1 substrate protein remaining % (GSPT1) |
| --- | --- | --- | --- | --- | --- | --- | --- | --- |
| 60 to 80 | 80 to 100 | O=C1CCC(N2Cc3cc(CN4CCN(C(c5ccccn5)c5ccccn5)CC4)ccc3C2=S)C(=O)N1 (centres unmarked) [GT-07734, 3-(5-((4-(di(pyridin-2-yl)methyl)piperazin-1-yl)methyl)-1-thioxoisoindolin-2-yl)piperidine-2,6-dione] | B (80%< substrate protein remaining %≤ 100%) | B (80%< substrate protein remaining %≤ 100%) | B (80%< substrate protein remaining %≤ 100%) | A (0% ≤ substrate protein remaining % ≤ 80%) | A (0% ≤ substrate protein remaining % ≤ 80%) | A (0% ≤ substrate protein remaining % ≤ 80%) |
| 53 to 60 | 80 to 100 | O=C1CCC(N2Cc3cc(CN4CCN(C(c5cccnc5)c5cccnc5)CC4)ccc3C2=S)C(=O)N1 (centres unmarked) [GT-07735, 3-(5-((4-(di(pyridin-3-yl)methyl)piperazin-1-yl)methyl)-1-thioxoisoindolin-2-yl)piperidine-2,6-dione] | B (80%< substrate protein remaining %≤ 100%) | B (80%< substrate protein remaining %≤ 100%) | B (80%< substrate protein remaining %≤ 100%) | A (0% ≤ substrate protein remaining % ≤ 80%) | A (0% ≤ substrate protein remaining % ≤ 80%) | A (0% ≤ substrate protein remaining % ≤ 80%) |
| 60 to 80 | 80 to 100 | O=C1CCC(N2Cc3cc(CN4C[C@@H]5C[C@H]4CN5C(c4ccccc4)c4ccccc4)ccc3C2=S)C(=O)N1 (stereo partly drawn) [GT-07739, 3-(5-(((1S,4S)-5-benzhydryl-2,5-diazabicyclo[2.2.1]heptan-2-yl)methyl)-1-thioxoisoindolin-2-yl)piperidine-2,6-dione] | B (80%< substrate protein remaining %≤ 100%) | A (0% ≤ substrate protein remaining % ≤ 80%) | A (0% ≤ substrate protein remaining % ≤ 80%) | B (80%< substrate protein remaining %≤ 100%) | B (80%< substrate protein remaining %≤ 100%) | A (0% ≤ substrate protein remaining % ≤ 80%) |
| 40 to 53 | 60 to 80 | CC1(C)CN(Cc2ccc3c(c2)CN(C2CCC(=O)NC2=O)C3=S)CCN1C(c1ccccc1)c1ccccc1 (centres unmarked) [GT-07845, 3-(5-((4-benzhydryl-3,3-dimethylpiperazin-1-yl)methyl)-1-thioxoisoindolin-2-yl)piperidine-2,6-dione] | B (80%< substrate protein remaining %≤ 100%) | A (0% ≤ substrate protein remaining % ≤ 80%) | A (0% ≤ substrate protein remaining % ≤ 80%) | B (80%< substrate protein remaining %≤ 100%) | A (0% ≤ substrate protein remaining % ≤ 80%) | B (80%< substrate protein remaining %≤ 100%) |
| 53 to 60 | 80 to 100 | O=C1CCC(N2Cc3cc(CN4CC5CCC4CN5C(c4ccccc4)c4ccccc4)ccc3C2=S)C(=O)N1 (centres unmarked) [GT-07847, 3-(5-((5-benzhydryl-2,5-diazabicyclo[2.2.2]octan-2-yl)methyl)-1-thioxoisoindolin-2-yl)piperidine-2,6-dione] | B (80%< substrate protein remaining %≤ 100%) | B (80%< substrate protein remaining %≤ 100%) | A (0% ≤ substrate protein remaining % ≤ 80%) | A (0% ≤ substrate protein remaining % ≤ 80%) | A (0% ≤ substrate protein remaining % ≤ 80%) | A (0% ≤ substrate protein remaining % ≤ 80%) |
| 30 to 40 | 80 to 100 | O=C1CCC(N2Cc3cc(CN4CCCN(C(c5ccccc5)c5ccccc5)CC4)ccc3C2=S)C(=O)N1 (centres unmarked) [GT-07848, 3-(5-((4-benzhydryl-1,4-diazepan-1-yl)methyl)-1-thioxoisoindolin-2-yl)piperidine-2,6-dione] | B (80%< substrate protein remaining %≤ 100%) | B (80%< substrate protein remaining %≤ 100%) | A (0% ≤ substrate protein remaining % ≤ 80%) | A (0% ≤ substrate protein remaining % ≤ 80%) | B (80%< substrate protein remaining %≤ 100%) | A (0% ≤ substrate protein remaining % ≤ 80%) |

Continued, compound first:

| Compound | inhibition at 0.5 µM [1] [%] | inhibition at 2 µM [1] [%] | CK1α substrate protein remaining % (CK1α) | IKZF 1 substrate protein remaining % (IKZF1) | IKZF2 substrate protein remaining % (IKZF2) | IKZF3 substrate protein remaining % (IKZF3) | Wee1 substrate protein remaining % (WEE1) | GSPT1 substrate protein remaining % (GSPT1) |
| --- | --- | --- | --- | --- | --- | --- | --- | --- |
| O=C1CCC(N2Cc3cc(CN4CCN(C(c5ccccc5)c5ccncc5)CC4)ccc3C2=S)C(=O)N1 (centres unmarked) [GT-07733, 3-(5-((4-(phenyl(pyridin-4-yl)methyl)piperazin-1-yl)methyl)-1-thioxoisoindolin-2-yl)piperidine-2,6-dione] | 60 to 80 | 80 to 100 | B (80%< substrate protein remaining %≤ 100%) | B (80%< substrate protein remaining %≤ 100%) | B (80%< substrate protein remaining %≤ 100%) | A (0% ≤ substrate protein remaining % ≤ 80%) | A (0% ≤ substrate protein remaining % ≤ 80%) | A (0% ≤ substrate protein remaining % ≤ 80%) |
| O=C1CCC(N2Cc3cc(CN4CCN(C(c5ccc(Cl)cc5)c5ccc(Cl)cc5)CC4)ccc3C2=S)C(=O)N1 (centres unmarked) [GT-07737, 3-(5-((4-(bis(4-chlorophenyl)methyl)piperazin-1-yl)methyl)-1-thioxoisoindolin-2-yl)piperidine-2,6-dione] | 30 to 40 | 53 to 60 | B (80%< substrate protein remaining %≤ 100%) | A (0% ≤ substrate protein remaining % ≤ 80%) | A (0% ≤ substrate protein remaining % ≤ 80%) | A (0% ≤ substrate protein remaining % ≤ 80%) | B (80%< substrate protein remaining %≤ 100%) | A (0% ≤ substrate protein remaining % ≤ 80%) |
| O=C1CCC(N2Cc3cc(CN4C5CC4CN(C(c4ccccc4)c4ccccc4)C5)ccc3C2=S)C(=O)N1 (centres unmarked) [GT-07738, 3-(5-((3-benzhydryl-3,6-diazabicyclo[3.1.1]heptan-6-yl)methyl)-1-thioxoisoindolin-2-yl)piperidine-2,6-dione] | 53 to 60 | 80 to 100 | B (80%< substrate protein remaining %≤ 100%) | A (0% ≤ substrate protein remaining % ≤ 80%) | A (0% ≤ substrate protein remaining % ≤ 80%) | B (80%< substrate protein remaining %≤ 100%) | B (80%< substrate protein remaining %≤ 100%) | A (0% ≤ substrate protein remaining % ≤ 80%) |
| O=C1CCC(N2Cc3cc(CN4C[C@H]5C[C@@H]4CN5C(c4ccccc4)c4ccccc4)ccc3C2=S)C(=O)N1 (stereo partly drawn) [GT-07740, 3-(5-(((1R,4R)-5-benzhydryl-2,5-diazabicyclo[2.2.1]heptan-2-yl)methyl)-1-thioxoisoindolin-2-yl)piperidine-2,6-dione] | 53 to 60 | 80 to 100 | B (80%< substrate protein remaining %≤ 100%) | A (0% ≤ substrate protein remaining % ≤ 80%) | A (0% ≤ substrate protein remaining % ≤ 80%) | B (80%< substrate protein remaining %≤ 100%) | B (80%< substrate protein remaining %≤ 100%) | B (80%< substrate protein remaining %≤ 100%) |
